Experimental data taken from ChEMBL document CHEMBL3272135, “Quantitative relationships between steroid structure and binding to putative progesterone receptors” (J Med Chem, 1977).

Columns and labels:
[1] = target: T1, Progesterone receptor (Ovis aries) (UniProt Q28590); assay: Relative binding affinity to sheep progesterone receptor
T1 sequence (whole entry): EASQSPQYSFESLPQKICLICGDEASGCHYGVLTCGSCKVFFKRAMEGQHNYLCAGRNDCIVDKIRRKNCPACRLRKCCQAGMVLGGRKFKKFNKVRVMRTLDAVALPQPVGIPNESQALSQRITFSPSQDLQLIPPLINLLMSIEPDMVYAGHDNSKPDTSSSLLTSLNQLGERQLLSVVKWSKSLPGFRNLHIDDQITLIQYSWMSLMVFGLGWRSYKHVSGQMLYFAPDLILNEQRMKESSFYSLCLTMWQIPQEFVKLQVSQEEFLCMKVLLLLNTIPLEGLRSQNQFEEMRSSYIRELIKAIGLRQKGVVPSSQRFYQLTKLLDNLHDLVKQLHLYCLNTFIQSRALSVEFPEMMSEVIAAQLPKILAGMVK

[2] = target: T2, Progesterone receptor (Oryctolagus cuniculus) (UniProt P06186); assay: Relative binding affinity to rabbit progesterone receptor
T2 sequence (whole entry): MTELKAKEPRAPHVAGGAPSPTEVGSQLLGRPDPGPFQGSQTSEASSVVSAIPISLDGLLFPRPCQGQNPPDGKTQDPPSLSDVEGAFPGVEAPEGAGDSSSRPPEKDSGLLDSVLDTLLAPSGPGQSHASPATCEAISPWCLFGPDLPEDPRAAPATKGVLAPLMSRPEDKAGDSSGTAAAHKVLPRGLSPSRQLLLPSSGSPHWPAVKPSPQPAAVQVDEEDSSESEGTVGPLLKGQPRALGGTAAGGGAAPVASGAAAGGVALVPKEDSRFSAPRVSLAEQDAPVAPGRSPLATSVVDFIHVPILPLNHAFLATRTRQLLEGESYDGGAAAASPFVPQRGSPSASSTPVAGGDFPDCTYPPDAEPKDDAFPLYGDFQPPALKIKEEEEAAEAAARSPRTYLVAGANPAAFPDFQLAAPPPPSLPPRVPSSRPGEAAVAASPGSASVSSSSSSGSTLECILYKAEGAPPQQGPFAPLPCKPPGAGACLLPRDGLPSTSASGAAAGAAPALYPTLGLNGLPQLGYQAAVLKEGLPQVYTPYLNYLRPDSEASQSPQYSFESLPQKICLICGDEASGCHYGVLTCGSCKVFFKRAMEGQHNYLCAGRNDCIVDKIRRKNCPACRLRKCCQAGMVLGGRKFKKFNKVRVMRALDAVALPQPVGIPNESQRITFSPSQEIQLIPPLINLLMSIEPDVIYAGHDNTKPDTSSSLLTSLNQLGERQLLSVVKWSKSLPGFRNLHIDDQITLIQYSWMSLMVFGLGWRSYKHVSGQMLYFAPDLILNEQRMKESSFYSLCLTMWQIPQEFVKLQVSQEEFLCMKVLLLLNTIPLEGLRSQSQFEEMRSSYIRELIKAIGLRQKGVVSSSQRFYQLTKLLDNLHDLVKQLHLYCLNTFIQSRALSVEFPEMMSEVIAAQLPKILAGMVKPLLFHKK

Cavia porcellus = species on record: Cavia porcellus; assay: Relative binding affinity to guinea pig progesterone receptor
[3] = target: T3, Progesterone receptor (Homo sapiens) (UniProt P06401)
T3 sequence (whole entry): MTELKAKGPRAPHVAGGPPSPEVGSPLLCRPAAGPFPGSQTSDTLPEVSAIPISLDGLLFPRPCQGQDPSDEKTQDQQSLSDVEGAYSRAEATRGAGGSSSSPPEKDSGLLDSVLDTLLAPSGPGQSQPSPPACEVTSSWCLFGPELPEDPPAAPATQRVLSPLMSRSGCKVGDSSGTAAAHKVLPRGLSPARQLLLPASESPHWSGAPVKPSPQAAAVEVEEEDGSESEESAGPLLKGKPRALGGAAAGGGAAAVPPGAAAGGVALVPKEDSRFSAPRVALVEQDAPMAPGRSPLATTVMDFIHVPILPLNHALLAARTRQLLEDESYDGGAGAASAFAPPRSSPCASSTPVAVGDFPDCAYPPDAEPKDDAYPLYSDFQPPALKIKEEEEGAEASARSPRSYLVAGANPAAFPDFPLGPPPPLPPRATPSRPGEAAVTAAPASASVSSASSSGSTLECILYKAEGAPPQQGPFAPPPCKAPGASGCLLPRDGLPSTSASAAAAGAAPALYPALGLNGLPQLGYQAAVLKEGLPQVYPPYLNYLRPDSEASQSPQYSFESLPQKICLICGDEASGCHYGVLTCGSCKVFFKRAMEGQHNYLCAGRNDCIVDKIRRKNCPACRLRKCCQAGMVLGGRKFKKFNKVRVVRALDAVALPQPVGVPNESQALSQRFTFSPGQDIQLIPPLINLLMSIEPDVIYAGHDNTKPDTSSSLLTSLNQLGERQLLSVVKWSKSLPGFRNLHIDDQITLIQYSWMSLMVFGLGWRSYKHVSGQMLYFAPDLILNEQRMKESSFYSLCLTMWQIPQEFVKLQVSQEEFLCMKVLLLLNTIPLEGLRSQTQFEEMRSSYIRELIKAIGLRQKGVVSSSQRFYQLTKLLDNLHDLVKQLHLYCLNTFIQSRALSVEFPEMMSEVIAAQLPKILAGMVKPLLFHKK

| Compound | log(RBA) [1] | log(RBA) [2] | log(RBA) (Cavia porcellus) | log(RBA) [3] |
| --- | --- | --- | --- | --- |
| C[C@]12CCC(=O)C=C1CC[C@@H]1[C@@H]2[C@@H](O)C[C@@]2(C)[C@H]1CC[C@]2(O)C(=O)CO | -1.3 | -1 | -1 | -1 |
| C#C[C@]1(O)CC[C@H]2[C@@H]3CC[C@H]4C[C@@H](O)CC[C@@H]4[C@H]3CC[C@@]21C | -1.3 | -0.52 | -2 | -0.7 |
| CC(=O)O[C@]1(C(C)=O)CC[C@H]2[C@@H]3CCC4=CC(=O)CC[C@]4(C)[C@H]3CC[C@@]21C | 1.6 | 1.72 | -0.7 | 1.83 |
| CC(=O)OCC(=O)[C@H]1CC[C@H]2[C@@H]3CCC4=CC(=O)CC[C@]4(C)[C@H]3CC[C@]12C | 1 | 1.69 | 1.34 | 1 |
| C#C[C@]1(OC(C)=O)CC[C@H]2[C@@H]3CCC4=CCCC[C@@H]4[C@H]3CC[C@@]21C | -1 | 0 | -2 | -0.7 |
| CC[C@@H]1C[C@H]2[C@@H]3CCC4=CC(=O)CC[C@@H]4[C@H]3CC[C@]2(C)[C@H]1C(=O)CF | 2.08 | 2.36 | 1.6 | 2.23 |
| C#C[C@]1(O)CC[C@H]2[C@H]3[C@H](CC[C@@]21C)[C@H]1CCCC=C1C[C@H]3C | 0.301 | 0.954 | -0.7 | 0.3 |
| C#C[C@]1(O)CC[C@H]2[C@@H]3CC[C@H]4C[C@H](O)CC[C@@H]4[C@H]3CC[C@@]21C | -1.52 | -1 | -2 | -1 |
| CC(=O)[C@H]1CC[C@H]2[C@@H]3CC[C@H]4CC(=O)CC[C@]4(C)[C@H]3CC[C@]12C | 1.48 | 1.74 | 1.4 | 1.48 |
| CC(=O)[C@H]1CC[C@H]2[C@@H]3CCC4=CC(=O)CC[C@@H]4[C@H]3CC[C@]12C | 2.13 | 2.41 | 2.06 | 2.11 |
| CC(=O)[C@H]1CC[C@H]2[C@@H]3CCC4=CC(=O)CC[C@]4(C)[C@H]3[C@H](O)C[C@]12C | -0.15 | 0.301 | -0.097 | 0.48 |
| CC(=O)[C@H]1CC[C@H]2[C@@H]3[C@H](C)CC4=CC(=O)CC[C@]4(C)[C@H]3CC[C@]12C | 1.32 | 1.61 | 1.67 | 1.43 |
| C#C[C@]1(OC(C)=O)CC[C@H]2[C@@H]3CCC4=CC(=O)CC[C@@H]4[C@H]3CC[C@@]21C | 1.04 | 2.05 | 0.78 | 1.32 |
| CC(=O)O[C@]1(C(C)=O)CC[C@H]2[C@@H]3C=C(C)C4=CC(=O)CC[C@]4(C)[C@H]3CC[C@@]21C | 1.51 | 2 | -0.3 | 1.94 |
| C#C[C@]1(O)CC[C@H]2[C@@H]3CCC4=CCCC[C@@H]4[C@H]3CC[C@@]21C | 0.602 | 1.11 | -0.52 | 0.7 |
| C#C[C@]1(O)CC[C@H]2[C@@H]3CC[C@@H]4C[C@@H](O)CC[C@@H]4[C@H]3CC[C@@]21C | -0.7 | -1 | -1.09 | -0.52 |
| CC[C@]12CC[C@H]3[C@@H](CCC4=CC(=O)CC[C@@]43C)[C@@H]1CC[C@@H]2C(C)=O | 1.04 | 1.5 | 1.63 | 1.43 |
| C[C@]12CCC(=O)C=C1CC[C@@H]1[C@@H]2CC[C@]2(C)C(=O)CC[C@@H]12 | -1 | -1 | -0.7 | -1 |
| CC(=O)[C@H]1CC[C@H]2[C@@H]3CCC4=CC(=O)CC[C@]4(CO)[C@H]3CC[C@]12C | -0.52 | -0.301 | -0.22 | -0.52 |
| C#C[C@]1(O)CC[C@H]2[C@@H]3CCC4=C[C@@H](O)CC[C@@H]4[C@H]3CC[C@@]21C | 1 | 1.3 | -0.22 | 1.4 |
| CC[C@@H]1C[C@H]2[C@@H]3C=CC4=CC(=O)CC[C@@H]4[C@H]3CC[C@]2(C)[C@H]1C(=O)CF | 2.13 | 2.24 | 1.17 | 2.15 |
| C#C[C@]1(O)CC[C@H]2[C@@H]3[C@H](C)CC4=C(CCC(=O)C4)[C@H]3CC[C@@]21C | 0.7 | 0.903 | -0.4 | 0.78 |
| C=CC[C@]1(O)CC[C@H]2[C@@H]3CCC4=CCCC[C@@H]4[C@H]3CC[C@@]21C | 0.6 | 1.08 | -0.7 | 0.48 |
| C#C[C@]1(O)CC[C@H]2[C@@H]3CC=C4CCCC[C@@H]4[C@H]3CC[C@@]21C | -0.7 | -0.523 | -1.15 | -1 |
